Assay results published in PMC11137734, “Exploring Novel Antimalarial Compounds Targeting Plasmodium falciparum Enoyl-ACP Reductase: Computational and Experimental Insights” (ACS Omega, 2024).

Columns and labels:
[1] = molecular target: T1, P. falciparum 2-trans-enoyl-ACP reductase (PfENR) (Plasmodium falciparum, UniProt C6KSZ2); test: NADH consumption enzymatic assay ([…] nm) with crotonyl-CoA, purified recombinant PfENR; format: biochemical
T1 construct: gene PF3D7_0615100; recombinant His-tagged PfENR (pGS-21a, E. coli BL21(DE3))
T1 sequence (C6KSZ2 96-432): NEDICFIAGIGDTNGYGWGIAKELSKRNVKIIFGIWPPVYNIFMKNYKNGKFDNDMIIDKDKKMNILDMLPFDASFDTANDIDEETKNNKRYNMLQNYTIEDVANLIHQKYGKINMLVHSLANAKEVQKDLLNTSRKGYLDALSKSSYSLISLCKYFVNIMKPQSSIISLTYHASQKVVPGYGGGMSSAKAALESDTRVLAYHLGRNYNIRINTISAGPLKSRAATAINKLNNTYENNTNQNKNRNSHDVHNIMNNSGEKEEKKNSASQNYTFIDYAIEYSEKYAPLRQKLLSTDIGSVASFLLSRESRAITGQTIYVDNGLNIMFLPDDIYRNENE

[2] = molecular target: T1, P. falciparum 2-trans-enoyl-ACP reductase (PfENR); test: NADH consumption enzymatic assay ([…] nm) with crotonyl-CoA, purified recombinant PfENR; positive control inhibitor; format: biochemical

| IC50 [1] [µM] | SMILES | IC50 [2] [µM] |
| --- | --- | --- |
| 3.95 | CCc1ccc(Oc2ccc(NS(=O)(=O)c3ccc4ccccc4c3)cc2)cc1 [LG2, N-[4-(4-ethylphenoxy)phenyl]naphthalene-2-sulfonamide] |  |
|  | Oc1cc(Cl)ccc1Oc1ccc(Cl)cc1Cl [TCL, Triclosan] | 3.58 |
